One assay deals with T1, wildtype HIV-1 protease (Human immunodeficiency virus type 1 group M subtype B, UniProt P04585).
T1 construct: the wildtype HIV-1 protease (which was expressed in Escherichia coli); made in house; host or cells: Escherichia coli
Description: Assay for inhibition of microbial expressed HIV protease (Pepcleav). It counts as biochemical. The following applies: Pepcleav (nM). On the procedure:
Assay for Inhibition of Microbial Expressed HIV Protease (“Pepcleav”)
Studies of the inhibition of the wildtype HIV-1 protease (which was expressed in Escherichia coli) were carried out with a peptide substrate [Val-Ser-Gln-Asn-(βnaphthyl)Ala-Pro-Ile-Val (SEQ ID NO:1)]. The inhibitor is first preincubated with the HIV-1 protease (wild type) enzyme in assay buffer (50 mM sodium acetate, pH 5.5, 100 mM NaCl, and 0.1% BSA) for 30 minutes at room temperature. Substrate is added to 400 micromolar in a total volume of 20 microliters containing 20 picomolar HIV-1 protease (final) and the reaction is incubated for 1 hour at 30° C. The reaction is quenched with the addition of formic acid and indinavir to 0.012% and 150 nM final concentrations, respectively. The product formation is determined after separation of product and substrate on a Zorbax Eclipse XDB-C 18 column connected to an API 4000 mass spectrometer (Applied Biosystems) with multiple reaction monitoring (transitions were 644.5/428.9 and 615.4/422.2 (M1/M3) for product and indinavir respectively). The extent of inhibition of the reaction is determined from the peak area of the products.
For `COC(=O)N[C@H](C(=O)Nc1ccccc1CC[C@@H]1CN[C@H](COC(=O)N[C@H]2CO[C@H]3OCC[C@H]32)CO1)C(c1ccccc1)c1ccccc1` [Example 13, N-(2-{2-[(2R,5S)-5-({[(3R,3aS,6aR)-hexahydrofuro[2,3-b]furan-3-ylcarbamoyl]oxy}methyl)morpholin-2-yl]ethyl}phenyl)-Nα-(methoxycarbonyl)-β-phenyl-L-phenylalaninamide], the IC50 amounted to 110 nM.

The same assay, now with this note: wild type HIV-1 protease expressed in E. coli, peptide substrate, pH 5.5; mean of at least two independent experiments; read-out: Pepcleav.
With `COC(=O)N[C@H](C(=O)Nc1ccccc1CC[C@@H]1CN[C@H](C(=O)O)CO1)C(c1ccccc1)c1ccccc1` [Example 1, (3S,6R)-6-[2-(2-{[N-(methoxycarbonyl)-β-phenyl-L-phenylalanyl]amino}phenyl)ethyl]morpholine-3-carboxylic acid], the IC50 amounted to 65 nM. Take `COC(=O)N[C@H](C(=O)Nc1ccccc1CC[C@@H]1CN[C@H](C(=O)NCc2ccccc2)CO1)C(c1ccccc1)c1ccccc1` [Example 2, N-(2-{2-[(2R,5S)-5-(benzylcarbamoyl)morpholin-2-yl]ethyl}phenyl)-Nα-(methoxycarbonyl)-β-phenyl-L-phenylalaninamide]: the IC50 came to 1.4 nM. Still for that read-out and setting: the result for `CCNC(=O)[C@@H]1CO[C@H](CCc2ccccc2NC(=O)[C@@H](NC(=O)OC)C(c2ccccc2)c2ccccc2)CN1` [Example 3, N-(2-{2-[(2R,5S)-5-(ethylcarbamoyl)morpholin-2-yl]ethyl}phenyl)-Nα-(methoxycarbonyl)-β-phenyl-L-phenylalaninamide] reads 15 nM. On the same count and under the same terms, the result for `COC(=O)N[C@H](C(=O)Nc1ccccc1CC[C@@H]1CN[C@H](C(=O)NC2CCOC2)CO1)C(c1ccccc1)c1ccccc1` (stereo partly drawn) [Example 4, Nα-(methoxycarbonyl)-β-phenyl-N-(2-{2-[(2R,5S)-5-(tetrahydrofuran-3-ylcarbamoyl)morpholin-2-yl]ethyl}phenyl)-L-phenylalaninamide] reads 25 nM.

In the case of `COC(=O)N[C@H](C(=O)Nc1ccccc1CC[C@@H]1CN[C@H](C(=O)N2CCCC2)CO1)C(c1ccccc1)c1ccccc1` [Example 5, Nα-(methoxycarbonyl)-β-phenyl-N-(2-{2-[(2R,5S)-5-(pyrrolidin-1-ylcarbonyl)morpholin-2-yl]ethyl}phenyl)-L-phenylalaninamide], the IC50 was 80 nM.

Regarding `COC(=O)N[C@H](C(=O)Nc1ccccc1CC[C@@H]1CN[C@H](C(=O)NCCc2ccccc2)CO1)C(c1ccccc1)c1ccccc1` [Example 6, Nα-(methoxycarbonyl)-β-phenyl-N-[2-(2-{(2R,5S)-5-[(2-phenylethyl)carbamoyl]morpholin-2-yl}ethyl)phenyl]-L-phenylalaninamide], the IC50 worked out at 9.9 nM. The same measure, in the same setting: in the case of `COC(=O)N[C@H](C(=O)Nc1ccccc1CC[C@@H]1CN[C@H](C(=O)Nc2ccccc2)CO1)C(c1ccccc1)c1ccccc1` [Example 7, Nα-(methoxycarbonyl)-β-phenyl-N-(2-{2-[(2R,5S)-5-(phenylcarbamoyl)morpholin-2-yl]ethyl}phenyl)-L-phenylalaninamide] it was 0.8 nM; in that of `COC(=O)N[C@H](C(=O)Nc1ccccc1CC[C@@H]1CN[C@H](C(=O)NC(C)(C)C)CO1)C(c1ccccc1)c1ccccc1` [Example 8, N-(2-{2-[(2R,5S)-5-(tert-butylcarbamoyl)morpholin-2-yl]ethyl}phenyl)-Nα-(methoxycarbonyl)-β-phenyl-L-phenylalaninamide], 41 nM; in that of `COC(=O)N[C@H](C(=O)Nc1ccccc1CC[C@@H]1CN[C@H](C(=O)NNc2ccccc2)CO1)C(c1ccccc1)c1ccccc1` [Example 9, Nα-(methoxycarbonyl)-β-phenyl-N-[2-(2-{(2R,5S)-5-[(2-phenylhydrazinyl)carbonyl]morpholin-2-yl}ethyl)phenyl]-L-phenylalaninamide], 88 nM. On the same count and under the same terms, the result for `COC(=O)N[C@H](C(=O)Nc1ccccc1CC[C@@H]1CN[C@H](C(=O)NS(=O)(=O)c2ccccc2)CO1)C(c1ccccc1)c1ccccc1` [Example 10, Nα-(methoxycarbonyl)-β-phenyl-N-[2-(2-{(2R,5S)-5-[(phenylsulfonyl)carbamoyl]morpholin-2-yl}ethyl)phenyl]-L-phenylalaninamide] reads 17 nM; that for `COC(=O)N[C@H](C(=O)Nc1ccccc1CC[C@@H]1CN[C@H](C(N)=O)CO1)C(c1ccccc1)c1ccccc1` [Example 11, methyl [(1S)-2-[(2-{2-[(2R,5S)-5-(aminocarbonyl)morpholin-2-yl]ethyl}phenyl)amino]-1-(diphenylmethyl)-2-oxoethyl]carbamate], 80 nM; that for `COC(=O)N[C@H](C(=O)Nc1ccccc1CC[C@@H]1CN[C@H](COC(=O)NCc2ccccc2F)CO1)C(c1ccccc1)c1ccccc1` [Example 12, N-(2-{2-[(2R,5S)-5-({[(2-fluorobenzyl)carbamoyl]oxy}methyl)morpholin-2-yl]ethyl}phenyl)-Nα-(methoxycarbonyl)-β-phenyl-L-phenylalaninamide], 3.6 nM.

On to `COC(=O)N[C@H](C(=O)Nc1ccccc1CC[C@@H]1CN[C@H](COC(=O)N[C@H]2c3ccccc3C[C@H]2O)CO1)C(c1ccccc1)c1ccccc1` [Example 14, N-[2-(2-{(2R,5S)-5-[({[(1S,2R)-2-hydroxy-2,3-dihydro-1H-inden-1-yl]carbamoyl}oxy)methyl]morpholin-2-yl}ethyl)phenyl]-Nα-(methoxycarbonyl)-β-phenyl-L-phenylalaninamide], for which the IC50 amounted to 17 nM. Same read-out and setting: the result for `COC(=O)N[C@H](C(=O)Nc1ccccc1CC[C@@H]1CN[C@H](COC(=O)NC2CCc3ccccc32)CO1)C(c1ccccc1)c1ccccc1` (stereo partly drawn) [Example 15, N-(2-{2-[(2R,5S)-5-{[(2,3-dihydro-1H-inden-1-ylcarbamoyl)oxy]methyl}morpholin-2-yl]ethyl}phenyl)-Nα-(methoxycarbonyl)-β-phenyl-L-phenylalaninamide] reads 4.1 nM. The same measure, in the same setting: in the case of `COC(=O)N[C@H](C(=O)Nc1ccccc1CC[C@@H]1CN[C@H](COC(=O)NCc2ccc(F)cc2)CO1)C(c1ccccc1)c1ccccc1` [Example 16, methyl N-[(1S)-1-benzhydryl-2-[[2-[2-[(2R,5S)-5-[(4-fluorophenyl)methylcarbamoyloxymethyl]morpholin-2-yl]ethyl]phenyl]amino]-2-oxo-ethyl]carbamate] it was 5.9 nM. `COC(=O)N[C@H](C(=O)Nc1ccccc1CC[C@@H]1CN[C@H](COC(=O)NCC(F)(F)F)CO1)C(c1ccccc1)c1ccccc1` [Example 17, methyl N-[(1S)-1-benzhydryl-2-oxo-2-[[2-[2-[(2R,5S)-5-(2,2,2-trifluoroethylcarbamoyloxymethyl)morpholin-2-yl]ethyl]phenyl]amino]ethyl]carbamate]: the IC50 is 27 nM. Still for that read-out and setting: in the case of `COC(=O)N[C@H](C(=O)Nc1ccccc1CC[C@@H]1CN[C@H](COC(=O)NCc2cccc3ccncc23)CO1)C(c1ccccc1)c1ccccc1` [Example 18, methyl N-[(1S)-1-benzhydryl-2-[[2-[2-[(2R,5S)-5-(8-isoquinolylmethylcarbamoyloxymethyl)morpholin-2-yl]ethyl]phenyl]amino]-2-oxo-ethyl]carbamate] it was 28 nM. Regarding `COC(=O)N[C@H](C(=O)Nc1ccccc1CC[C@@H]1CN[C@H](COC(=O)NCc2cncs2)CO1)C(c1ccccc1)c1ccccc1` [Example 19, methyl N-[(1S)-1-benzhydryl-2-oxo-2-[[2-[2-[(2R,5S)-5-(thiazol-5-ylmethylcarbamoyloxymethyl)morpholin-2-yl]ethyl]phenyl]amino]ethyl]carbamate], the IC50 was found to be 48 nM. On the same count and under the same terms, the result for `COC(=O)N[C@H](C(=O)Nc1ccccc1CC[C@@H]1CN[C@H](COC(=O)NCc2cccnc2)CO1)C(c1ccccc1)c1ccccc1` [Example 20, methyl N-[(1S)-1-benzhydryl-2-oxo-2-[[2-[2-[(2R,5S)-5-(3-pyridylmethylcarbamoyloxymethyl)morpholin-2-yl]ethyl]phenyl]amino]ethyl]carbamate] reads 78 nM; that for `COC(=O)N[C@H](C(=O)Nc1ccccc1CC[C@@H]1CN[C@H](COC(=O)NCc2ccc3nonc3c2)CO1)C(c1ccccc1)c1ccccc1` [Example 21, methyl N-[(1S)-1-benzhydryl-2-[[2-[2-[(2R,5S)-5-(2,1,3-benzoxadiazol-5-ylmethylcarbamoyloxymethyl)morpholin-2-yl]ethyl]phenyl]amino]-2-oxo-ethyl]carbamate], 52 nM; that for `COC(=O)N[C@H](C(=O)Nc1ccccc1CC[C@@H]1CN[C@H](COC(=O)NCC2CC2)CO1)C(c1ccccc1)c1ccccc1` [Example 22, methyl N-[(1S)-1-benzhydryl-2-[[2-[2-[(2R,5S)-5-(cyclopropylmethylcarbamoyloxymethyl)morpholin-2-yl]ethyl]phenyl]amino]-2-oxo-ethyl]carbamate], 58 nM.

Turning to `COC(=O)N[C@H](C(=O)Nc1ccccc1CC[C@@H]1CN[C@H](COC(=O)NC2CCC2)CO1)C(c1ccccc1)c1ccccc1` [Example 23, methyl N-[(1S)-1-benzhydryl-2-[[2-[2-[(2R,5S)-5-(cyclobutylcarbamoyloxymethyl)morpholin-2-yl]ethyl]phenyl]amino]-2-oxo-ethyl]carbamate], the IC50 was determined as 80 nM.

The record behind these values is patent US9315475B2 (MERCK SHARP & DOHME CORP., priority 2011, dated 2016).
